In patent US20060211698A1, “Bicyclic heteroaryl derivatives for treating viruses” (Genelabs, Inc., priority 2005, published 2006) one finds inhibition data, which are given here for 22 molecules.

The assay deals with T1, HCV-NS5b (Hepatitis C virus genotype 1b, UniProt Q9WMX2).
T1 construct: The cloned fragment was missing the C terminus 21 amino acid residues; (His)6 (C); made in house; host or cells: XL-1 cells (E. coli)
The assay is described as follows: HCV-NS5b Enzyme Assay. Conditions: 1 μM test compound; incorporation of [3H]-UTP, 37° C., 2 hours. Format: biochemical. An outline of the steps:
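The NS5B construct lacks its C-terminal 21 residues, carries a C-terminal His6 tag and was expressed in E. coli. [^3H]-UTP incorporation on a biotinylated HCV heteropolymeric template (10 ng/μL) with 10 μM each NTP, pH 7.5, 5 mM MgCl2 and 5% DMSO ran 2 h at 37° C and was read by SPA scintillation. IC50s came from 10-point 2-fold series starting at 50 or 2 μM.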
By inhibition is commonly meant the change of the read-out against control, counted positive when it falls. Consider `O=C(O)c1ccc2c(C3CCCCC3)c(-c3ccc(-c4ccccc4F)cc3)n(CC(=O)N3CCOCC3)c2c1` [Compound 302, 3-Cyclohexyl-2-(2′-fluoro-biphenyl-4-yl)-1-(2-morpholin-4-yl-2-oxo-ethyl)-1H-indole-6-carboxylic acid], for which the inhibition at 1 µM came out at 99.3%. The same measure for `O=C(O)c1ccc2c(C3CCCCC3)c(-c3ccc(-c4cccnc4F)cc3)n(CC(=O)N3CCOCC3)c2c1` [Compound 303, 3-Cyclohexyl-2-[4-(2-fluoro-pyridin-3-yl)-phenyl]-1-(2-morpholin-4-yl-2-oxo-ethyl)-1H-indole-6-carboxylic acid]: 98%. The value for `COc1ncccc1-c1ccc(-c2c(C3CCCCC3)c3ccc(C(=O)O)cc3n2CC(=O)N2CCOCC2)cc1` [Compound 304, 3-Cyclohexyl-2-[4-(2-methoxy-pyridin-3-yl)-phenyl]-1-(2-morpholin-4-yl-2-oxo-ethyl)-1H-indole-6-carboxylic acid] was 98.5%; that for `N#Cc1cccc(-c2ccc(-c3c(C4CCCCC4)c4ccc(C(=O)O)cc4n3CC(=O)N3CCOCC3)cc2)c1` [Compound 306, 2-(3′-Cyano-biphenyl-4-yl)-3-cyclohexyl-1-(2-morpholin-4-yl-2-oxo-ethyl)-1H-indole-6-carboxylic acid] was 97.8%. The same measure for `N#Cc1ccc(-c2ccc(-c3c(C4CCCCC4)c4ccc(C(=O)O)cc4n3CC(=O)N3CCOCC3)cc2)cc1` [Compound 307, 2-(4′-Cyano-biphenyl-4-yl)-3-cyclohexyl-1-(2-morpholin-4-yl-2-oxo-ethyl)-1H-indole-6-carboxylic acid]: 97.4%; for `COc1ccncc1-c1ccc(-c2c(C3CCCCC3)c3ccc(C(=O)O)cc3n2CC(=O)O)cc1` [Compound 308, 1-Carboxymethyl-3-cyclohexyl-2-[4-(4-methoxy-pyridin-3-yl)-phenyl]-1H-indole-6-carboxylic acid]: 97.5%; for `COc1cccc(-c2ccc(-c3c(C4CCCCC4)c4ccc(C(=O)O)cc4n3CC(=O)N3CCOCC3)cc2)c1` [Compound 309, 3-Cyclohexyl-2-(3′-methoxy-biphenyl-4-yl)-1-(2-morpholin-4-yl-2-oxo-ethyl)-1H-indole-6-carboxylic acid]: 98.8%. With `O=C(O)c1ccc2c(C3CCCCC3)c(-c3ccc(-c4cccc([N+](=O)[O-])c4)cc3)n(CC(=O)N3CCOCC3)c2c1` [Compound 310, 3-Cyclohexyl-2-(3′-nitro-biphenyl-4-yl)-1-(2-morpholin-4-yl-2-oxo-ethyl)-1H-indole-6-carboxylic acid], the inhibition at 1 µM stood at 99.6%.

On to `COc1ccccc1-c1ccc(-c2c(C3CCCCC3)c3ccc(C(=O)O)cc3n2CC(=O)N2CCOCC2)cc1` [Compound 311, 3-Cyclohexyl-2-(2′-methoxy-biphenyl-4-yl)-1-(2-morpholin-4-yl-2-oxo-ethyl)-1H-indole-6-carboxylic acid], for which the inhibition at 1 µM turned out to be 102%. The same measure for `Cc1cccc(-c2ccc(-c3c(C4CCCCC4)c4ccc(C(=O)O)cc4n3CC(=O)N3CCOCC3)cc2)c1` [Compound 312, 3-Cyclohexyl-2-(3′-methyl-biphenyl-4-yl)-1-(2-morpholin-4-yl-2-oxo-ethyl)-1H-indole-6-carboxylic acid]: 99.5%. The same measure for `Cc1ccccc1-c1ccc(-c2c(C3CCCCC3)c3ccc(C(=O)O)cc3n2CC(=O)N2CCOCC2)cc1` [Compound 313, 3-Cyclohexyl-2-(2′-methyl-biphenyl-4-yl)-1-(2-morpholin-4-yl-2-oxo-ethyl)-1H-indole-6-carboxylic acid]: 99.6%; for `C=Cc1ccc(-c2ccc(-c3c(C4CCCCC4)c4ccc(C(=O)O)cc4n3CC(=O)N3CCOCC3)cc2)cc1` [Compound 314, 3-Cyclohexyl-1-(2-morpholin-4-yl-2-oxo-ethyl)-2-(4′-vinyl-biphenyl-4-yl)-1H-indole-6-carboxylic acid]: 98%; for `Nc1cccc(-c2ccc(-c3c(C4CCCCC4)c4ccc(C(=O)O)cc4n3CC(=O)N3CCOCC3)cc2)c1` [Compound 315, 2-(3′-Amino-biphenyl-4-yl)-3-cyclohexyl-1-(2-morpholin-4-yl-2-oxo-ethyl)-1H-indole-6-carboxylic acid]: 95.8%. The same measure for `Cc1ccc(-c2ccc(-c3c(C4CCCCC4)c4ccc(C(=O)O)cc4n3CC(=O)N3CCOCC3)cc2)s1` [Compound 316, 3-Cyclohexyl-2-[4-(5-methyl-thiophen-2-yl)-phenyl]-1-(2-morpholin-4-yl-2-oxo-ethyl)-1H-indole-6-carboxylic acid]: 101%; for `Cc1noc(C)c1-c1ccc(-c2c(C3CCCCC3)c3ccc(C(=O)O)cc3n2CC(=O)N2CCOCC2)cc1` [Compound 317, 3-Cyclohexyl-2-[4-(3,5-dimethyl-isoxazol-4-yl)-phenyl]-1-(2-morpholin-4-yl-2-oxo-ethyl)-1H-indole-6-carboxylic acid]: 96.7%; for `O=C(O)c1ccc2c(C3CCCCC3)c(-c3ccc(-c4ccc(Cl)s4)cc3)n(CC(=O)N3CCOCC3)c2c1` [Compound 318, 2-[4-(5-Chloro-thiophen-2-yl)-phenyl]-3-cyclohexyl-1-(2-morpholin-4-yl-2-oxo-ethyl)-1H-indole-6-carboxylic acid]: 98.1%.

`Cc1nc(C)c(-c2ccc3cc(-c4c(C5CCCCC5)c5ccc(C(=O)O)cc5n4CC(=O)N4CCOCC4)cnc3n2)s1` [Compound 319, 3-Cyclohexyl-2-[7-(2,4-dimethyl-thiazol-5-yl)-[1,8]naphthyridin-3-yl]-1-(2-morpholin-4-yl-2-oxo-ethyl)-1H-indole-6-carboxylic acid]: the inhibition at 1 µM turned out to be 74.3%. The same measure for `Cc1nc(C)c(-c2nc3ccc(-c4c(C5CCCCC5)c5ccc(C(=O)O)cc5n4CC(=O)N4CCOCC4)cc3[nH]2)s1` [Compound 320, 3-Cyclohexyl-2-[2-(2,4-dimethyl-thiazol-5-yl)-3H-benzoimidazol-5-yl]-1-(2-morpholin-4-yl-2-oxo-ethyl)-1H-indole-6-carboxylic acid]: 84.1%. The value for `Cc1cccc(-c2ccc3cc(-c4c(C5CCCCC5)c5ccc(C(=O)O)cc5n4CC(=O)N4CCOCC4)ccc3c2)c1` [Compound 321, 3-Cyclohexyl-1-(2-morpholin-4-yl-2-oxo-ethyl)-2-(6-m-tolyl-naphthalen-2-yl)-1H-indole-6-carboxylic acid] was 98.2%; that for `O=C(O)c1ccc2c(C3CCCCC3)c(-c3ccc4cc(-c5ccccc5F)ccc4c3)n(CC(=O)N3CCOCC3)c2c1` [Compound 322, 3-Cyclohexyl-2-[6-(2-fluoro-phenyl)-naphthalen-2-yl]-1-(2-morpholin-4-yl-2-oxo-ethyl)-1H-indole-6-carboxylic acid] was 95.1%. The value for `Cc1nc(C)c(C2CCc3cc(-c4c(C5CCCCC5)c5ccc(C(=O)O)cc5n4CC(=O)N4CCOCC4)ccc3N2)s1` (stereo not shown) [Compound 323, 3-Cyclohexyl-2-[2-(2,4-dimethyl-thiazol-5-yl)-1,2,3,4-tetrahydro-quinolin-6-yl]-1-(2-morpholin-4-yl-2-oxo-ethyl)-1H-indole-6-carboxylic acid] was 97.6%; that for `O=C(O)c1ccc2c(C3CCCCC3)c(-c3ccc4nc(-c5ccncc5)ccc4c3)n(CC(=O)N3CCOCC3)c2c1` [Compound 325, 3-Cyclohexyl-1-(2-morpholin-4-yl-2-oxo-ethyl)-2-(2-pyridin-4-yl-quinolin-6-yl)-1H-indole-6-carboxylic acid] was 93.6%.
